Reference: US10023570B2 (Array BioPharma, Inc., priority 2015, dated 2018)
Where a name gives a salt, the structure may show the parent alone. Read-outs that look alike come from different tables or passages of the source.

What was measured:
[1] = target: N-terminal GST tagged recombinant human RET cytoplasmic domain (aa 658-end), wild type RET kinase (Homo sapiens (Human), UniProt P07949); experiment: RET Enzyme Assay (HTRF KinEASE-TK), wild type RET; assay type: biochemical
[2] = target: Kif5b-RET fusion protein in HEK-293 cells (Homo sapiens, UniProt P07949); experiment: cell-based
[3] = target: human KDR protein in HEK-293 cells (Homo sapiens (Human), UniProt P35968); experiment: KDR Cell Assay (phospho-KDR in HEK-293 cells expressing inducible KDR); assay type: cell-based; details: pKDR Cell HEK 10% FBS IC50, HEK-293 cells expressing inducible KDR, VEGF stimulated
Summary of the method: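 HEK-293 cells with inducible human KDR were treated with compound for 1 h in DMEM (0.25% DMSO final), then lysed. Phospho-KDR was quantified by Meso Scale immunoassay, expressed as percent of control, and IC50 taken where a 4-parameter logistic fit crossed 50 POC.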

[4] = HEK-293 cells expressing Kif5b-RET, phospho-RET(Tyr1062), read-out: KIF5B-RET pTYR1062 Cell IC50
[5] = HEK-293 cells expressing Kif5b-RET, read-out: KIF5B-RET pTYR1062 Cell IC50
[6] = read-out: KIF5B-RET pTYR1062 Cell IC50

human KDR protein in HEK-293 cells, sequence (P35968 20-1356): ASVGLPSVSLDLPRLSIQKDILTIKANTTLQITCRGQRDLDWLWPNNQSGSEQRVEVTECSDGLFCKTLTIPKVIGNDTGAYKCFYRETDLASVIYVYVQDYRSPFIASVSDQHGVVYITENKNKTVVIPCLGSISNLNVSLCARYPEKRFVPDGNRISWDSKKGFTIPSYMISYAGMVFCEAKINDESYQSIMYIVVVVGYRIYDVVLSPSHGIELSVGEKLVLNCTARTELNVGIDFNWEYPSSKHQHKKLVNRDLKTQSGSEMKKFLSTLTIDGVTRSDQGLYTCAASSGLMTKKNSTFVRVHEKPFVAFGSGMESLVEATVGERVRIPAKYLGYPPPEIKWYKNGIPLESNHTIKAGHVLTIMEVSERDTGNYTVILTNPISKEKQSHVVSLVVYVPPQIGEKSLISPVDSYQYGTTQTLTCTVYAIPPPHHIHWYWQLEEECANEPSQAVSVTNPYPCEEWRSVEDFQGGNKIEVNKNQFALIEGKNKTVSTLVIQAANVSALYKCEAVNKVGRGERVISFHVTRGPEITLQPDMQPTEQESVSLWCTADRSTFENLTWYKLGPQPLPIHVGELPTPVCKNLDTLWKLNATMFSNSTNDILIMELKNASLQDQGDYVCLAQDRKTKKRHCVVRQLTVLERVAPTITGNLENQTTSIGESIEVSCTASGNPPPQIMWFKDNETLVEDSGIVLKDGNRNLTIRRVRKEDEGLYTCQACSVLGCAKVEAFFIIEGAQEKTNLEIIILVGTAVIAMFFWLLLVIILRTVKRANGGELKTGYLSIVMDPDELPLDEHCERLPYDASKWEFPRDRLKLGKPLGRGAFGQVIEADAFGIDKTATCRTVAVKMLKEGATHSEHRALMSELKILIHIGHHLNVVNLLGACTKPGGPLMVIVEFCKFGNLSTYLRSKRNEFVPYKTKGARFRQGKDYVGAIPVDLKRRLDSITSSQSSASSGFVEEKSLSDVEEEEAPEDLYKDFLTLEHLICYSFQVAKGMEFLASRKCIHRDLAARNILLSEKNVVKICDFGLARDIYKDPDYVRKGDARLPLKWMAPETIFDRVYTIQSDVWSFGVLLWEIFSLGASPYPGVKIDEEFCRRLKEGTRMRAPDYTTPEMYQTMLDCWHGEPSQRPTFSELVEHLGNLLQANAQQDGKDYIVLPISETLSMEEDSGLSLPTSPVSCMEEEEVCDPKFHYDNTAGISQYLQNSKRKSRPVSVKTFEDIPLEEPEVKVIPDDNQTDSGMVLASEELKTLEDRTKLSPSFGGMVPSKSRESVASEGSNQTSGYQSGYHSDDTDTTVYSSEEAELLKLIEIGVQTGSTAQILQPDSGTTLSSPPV
N-terminal GST tagged recombinant human RET cytoplasmic domain (aa 658-end), wild type RET kinase, sequence (P07949 658-1114): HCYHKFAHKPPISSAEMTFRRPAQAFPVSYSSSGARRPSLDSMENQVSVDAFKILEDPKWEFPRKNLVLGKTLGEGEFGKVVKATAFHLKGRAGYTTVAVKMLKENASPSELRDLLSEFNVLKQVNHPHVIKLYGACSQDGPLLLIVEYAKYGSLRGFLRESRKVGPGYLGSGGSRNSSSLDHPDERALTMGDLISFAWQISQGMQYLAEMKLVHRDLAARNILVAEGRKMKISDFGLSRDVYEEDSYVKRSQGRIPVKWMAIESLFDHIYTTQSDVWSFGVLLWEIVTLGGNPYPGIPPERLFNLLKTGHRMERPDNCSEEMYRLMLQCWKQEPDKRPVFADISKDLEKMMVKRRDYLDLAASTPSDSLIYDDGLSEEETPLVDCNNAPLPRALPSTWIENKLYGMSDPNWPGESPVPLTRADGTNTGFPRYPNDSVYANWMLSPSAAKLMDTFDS
Kif5b-RET fusion protein in HEK-293 cells, sequence (P07949 29-1114 limits assumed): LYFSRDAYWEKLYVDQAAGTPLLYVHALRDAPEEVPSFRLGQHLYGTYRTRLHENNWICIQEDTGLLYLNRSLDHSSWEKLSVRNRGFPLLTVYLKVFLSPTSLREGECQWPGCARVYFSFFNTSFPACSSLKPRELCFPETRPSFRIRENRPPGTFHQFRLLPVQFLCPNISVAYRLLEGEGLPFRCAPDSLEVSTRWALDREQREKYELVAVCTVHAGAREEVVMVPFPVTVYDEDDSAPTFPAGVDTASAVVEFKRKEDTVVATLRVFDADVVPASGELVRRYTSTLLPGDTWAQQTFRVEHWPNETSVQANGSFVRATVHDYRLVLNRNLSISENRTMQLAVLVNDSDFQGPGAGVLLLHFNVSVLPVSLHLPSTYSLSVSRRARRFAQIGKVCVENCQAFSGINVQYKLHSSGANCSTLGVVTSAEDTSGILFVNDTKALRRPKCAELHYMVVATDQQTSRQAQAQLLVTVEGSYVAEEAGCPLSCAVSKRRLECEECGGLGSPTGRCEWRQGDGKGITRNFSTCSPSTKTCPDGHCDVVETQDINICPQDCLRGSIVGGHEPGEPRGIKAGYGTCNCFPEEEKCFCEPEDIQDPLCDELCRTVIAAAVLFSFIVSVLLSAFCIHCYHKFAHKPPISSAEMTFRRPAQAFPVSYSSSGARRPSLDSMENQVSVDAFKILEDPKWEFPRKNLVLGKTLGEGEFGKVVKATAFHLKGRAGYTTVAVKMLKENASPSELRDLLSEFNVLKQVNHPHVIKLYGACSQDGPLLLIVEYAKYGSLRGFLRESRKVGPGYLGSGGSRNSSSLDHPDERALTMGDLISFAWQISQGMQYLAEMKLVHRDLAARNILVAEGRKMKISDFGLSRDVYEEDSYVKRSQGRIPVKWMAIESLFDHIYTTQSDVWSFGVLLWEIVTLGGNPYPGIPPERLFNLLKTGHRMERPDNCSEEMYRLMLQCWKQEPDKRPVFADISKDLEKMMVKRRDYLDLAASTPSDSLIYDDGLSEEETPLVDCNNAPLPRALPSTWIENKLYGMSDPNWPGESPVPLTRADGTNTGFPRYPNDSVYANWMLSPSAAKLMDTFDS

| Compound | IC50 ([1]; wild type RET, 1 mM ATP) [nM] | IC50 [2, 4] [nM] | IC50 ([3]; 10% FBS) [nM] | IC50 [2, 5] [nM] | IC50 [3] [nM] | IC50 [2] [nM] | IC50 [1] [nM] | IC50 [2, 6] [nM] |
| --- | --- | --- | --- | --- | --- | --- | --- | --- |
| Cn1cc(-c2cc(-c3ccc(N4CCN(C(=O)CC(C)(C)C)CC4)nc3)c3c(C#N)cnn3c2)cn1 [Example 65, 4-(6-(4-(3,3-dimethylbutanoyl)piperazin-1-yl)pyridin-3-yl)-6-(1-methyl-1H-pyrazol-4-yl)pyrazolo[1,5-a]pyridine-3-carbonitrile] | 8.2 | 39.3 | 902 |  |  |  |  |  |
| COc1ccccc1CN1CCN(c2ccc(-c3cc(-c4cnn(C)c4)cn4ncc(C#N)c34)cn2)CC1 [Example 451, 4-(6-(4-(2-methoxybenzyl)piperazin-1-yl)pyridin-3-yl)-6-(1-methyl-1H-pyrazol-4-yl)pyrazolo[1,5-a]pyridine-3-carbonitrile] | 4.9 |  |  |  | 593 | 4.9 |  |  |
| Cn1cc(-c2cc(-c3ccc(N4CCC(C(=O)NOC(C)(C)C)CC4)nc3)c3c(C#N)cnn3c2)cn1 [Example 565, N-(tert-butoxy)-1-(5-(3-cyano-6-(1-methyl-1H-pyrazol-4-yl)pyrazolo[1,5-a]pyridin-4-yl)pyridin-2-yl)piperidine-4-carboxamide] | 6.4 |  |  | 10.3 | 540 |  |  |  |
| Cn1cc(-c2cc(-c3ccc(N4CCNCC4)nc3)c3c(C#N)cnn3c2)cn1 [Example 2, 6-(1-methyl-1H-pyrazol-4-yl)-4-(6-(piperazin-1-yl)pyridin-3-yl)pyrazolo[1,5-a]pyridine-3-carbonitrile dihydrochloride] |  | 111 | 1080 |  |  |  | 19.6 |  |
| Cn1cc(-c2cc(-c3ccc(N4CCC(N)CC4)nc3)c3c(C#N)cnn3c2)cn1 [Example 177, 4-(6-(4-aminopiperidin-1-yl)pyridin-3-yl)-6-(1-methyl-1H-pyrazol-4-yl)pyrazolo[1,5-a]pyridine-3-carbonitrile dihydrochloride] | 47 |  | 1180 |  |  |  |  | 69.9 |
| CC(C)NC(=O)CN1CCN(c2ccc(-c3cc(-c4cnn(C)c4)cn4ncc(C#N)c34)cn2)CC1 [Example 144, 2-(4-(5-(3-cyano-6-(1-methyl-1H-pyrazol-4-yl)pyrazolo[1,5-a]pyridin-4-yl)pyridin-2-yl)piperazin-1-yl)-N-isopropylacetamide 2,2,2-trifluoroacetate] |  | 58.9 | 1680 |  |  |  | 25.2 |  |
| C[C@@H](NC(=O)C1(C)CCN(c2ccc(-c3cc(-c4cnn(C)c4)cn4ncc(C#N)c34)cn2)CC1)C(F)(F)F [Example 253, (R)-1-(5-(3-cyano-6-(1-methyl-1H-pyrazol-4-yl)pyrazolo[1,5-a]pyridin-4-yl)pyridin-2-yl)-4-methyl-N-(1,1,1-trifluoropropan-2-yl)piperidine-4-carboxamide] | 16.1 | 8.4 | 596 |  |  |  |  |  |
| CC(C)OCCN1CCN(c2ccc(-c3cc(-c4cnn(C)c4)cn4ncc(C#N)c34)cn2)CC1 [Example 392, 4-(6-(4-(2-isopropoxyethyl)piperazin-1-yl)pyridin-3-yl)-6-(1-methyl-1H-pyrazol-4-yl)pyrazolo[1,5-a]pyridin-3-carbonitrile] | 8.5 |  |  | 3.6 | 765 |  |  |  |
| Cn1cc(-c2cc(-c3ccc(N4CCN(C(=O)CNC(C)(C)C)CC4)nc3)c3c(C#N)cnn3c2)cn1 [Example 22, 4-(6-(4-(2-(tert-butylamino)acetyl)piperazin-1-yl)pyridin-3-yl)-6-(1-methyl-1H-pyrazol-4-yl)pyrazolo[1,5-a]pyridine-3-carbonitrile dihydrochloride] | 14.8 |  | 630 |  |  |  |  | 22.5 |

Now from value to compound, other results behind:

| IC50 ([1]; wild type RET, 1 mM ATP) [nM] | IC50 [2, 4] [nM] | IC50 ([3]; 10% FBS) [nM] | IC50 [2, 5] [nM] | Compound | IC50 [3] [nM] | IC50 [2] [nM] | IC50 [1] [nM] | IC50 [2, 6] [nM] |
| --- | --- | --- | --- | --- | --- | --- | --- | --- |
| 62.1 | 60.4 | 1370 |  | CN(C)CC(=O)N1CCN(c2ccc(-c3cc(-c4cnn(C)c4)cn4ncc(Cl)c34)cn2)CC1 [Example 328, 1-(4-(5-(3-chloro-6-(1-methyl-1H-pyrazol-4-yl)pyrazolo[1,5-a]pyridin-4-yl)pyridin-2-yl)piperazin-1-yl)-2-(dimethylamino)ethanone] |  |  |  |  |
| 13.1 |  |  | 19.5 | COc1ncc(F)cc1CN1CCN(c2ccc(-c3cc(-c4cnn(C)c4)cn4ncc(C#N)c34)cn2)CC1 [Example 457, 4-(6-(4-((5-fluoro-2-methoxypyridin-3-yl)methyl)piperazin-1-yl)pyridin-3-yl)-6-(1-methyl-1H-pyrazol-4-yl)pyrazolo[1,5-a]pyridine-3-carbonitrile] | 877 |  |  |  |
| 16.2 | 47 | 207 |  | Cn1cc(-c2cc(-c3ccc(N4CCN(S(C)(=O)=O)CC4)nc3)c3c(Cl)cnn3c2)cn1 [Example 332, 3-chloro-6-(1-methyl-1H-pyrazol-4-yl)-4-(6-(4-(methylsulfonyl)piperazin-1-yl)pyridin-3-yl)pyrazolo[1,5-a]pyridine] |  |  |  |  |
| 8.4 | 18.5 | 510 |  | CCCC(=O)N1CCN(c2ccc(-c3cc(-c4cnn(C)c4)cn4ncc(C#N)c34)cn2)CC1 [Example 70, 4-(6-(4-butyrylpiperazin-1-yl)pyridin-3-yl)-6-(1-methyl-1H-pyrazol-4-yl)pyrazolo[1,5-a]pyridine-3-carbonitrile] |  |  |  |  |
| 11 | 13.6 | 2760 |  | CC(C)CC(=O)N1CCN(c2ccc(-c3cc(-c4cnn(C(F)F)c4)cn4ncc(C#N)c34)cn2)CC1 [Example 267, 6-(1-(difluoromethyl)-1H-pyrazol-4-yl)-4-(6-(4-(3-methylbutanoyl)piperazin-1-yl)pyridin-3-yl)pyrazolo[1,5-a]pyridine-3-carbonitrile] |  |  |  |  |
| 23.2 | 45.6 | 381 |  | COCC(=O)N1CCN(c2ccc(-c3cc(-c4cnn(C)c4)cn4ncc(Cl)c34)cn2)CC1 [Example 329, 1-(4-(5-(3-chloro-6-(1-methyl-1H-pyrazol-4-yl)pyrazolo[1,5-a]pyridin-4-yl)pyridin-2-yl)piperazin-1-yl)-2-methoxyethanone] |  |  |  |  |
| 26.6 | 33.5 | 998 |  | CC(C)NC(=O)CC1CCN(c2ccc(-c3cc(-c4cnn(C)c4)cn4ncc(C#N)c34)cn2)CC1 [Example 249, 2-(1-(5-(3-cyano-6-(1-methyl-1H-pyrazol-4-yl)pyrazolo[1,5-a]pyridin-4-yl)pyridin-2-yl)piperidin-4-yl)-N-isopropylacetamide] |  |  |  |  |
| 19.4 | 60.7 | 522 |  | CCC(=O)N1CCN(c2ccc(-c3cc(-c4cnn(C)c4)cn4ncc(C#N)c34)cn2)CC1 [Example 67, 6-(1-methyl-1H-pyrazol-4-yl)-4-(6-(4-propionylpiperazin-1-yl)pyridin-3-yl)pyrazolo[1,5-a]pyridine-3-carbonitrile] |  |  |  |  |
| 8.3 | 5.2 | 71.3 |  | Cn1cc(-c2cc(-c3ccc(N4CCN(S(=O)(=O)NC(C)(C)C)CC4)nc3)c3c(C#N)cnn3c2)cn1 [Example 137, N-(tert-butyl)-4-(5-(3-cyano-6-(1-methyl-1H-pyrazol-4-yl)pyrazolo[1,5-a]pyridin-4-yl)pyridin-2-yl)piperazine-1-sulfonamide] |  |  |  |  |
| 11.9 | 15.8 | 444 |  | COCC(=O)NC1CCN(c2ccc(-c3cc(-c4cnn(C)c4)cn4ncc(C#N)c34)cn2)CC1 [Example 183, N-(1-(5-(3-cyano-6-(1-methyl-1H-pyrazol-4-yl)pyrazolo[1,5-a]pyridin-4-yl)pyridin-2-yl)piperidin-4-yl)-2-methoxyacetamide] |  |  |  |  |
